Laboratory results taken from ChEMBL document CHEMBL1201862, “PubChem BioAssay data set” (2004).
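Interpolation was linear, between the two tested concentrations surrounding the appropriate level; five concentrations were tested over 48 hours in 96-well plates. Here, GI50 denotes the concentration required for 50% inhibition of growth.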 Activity calls are given as the source filed them. Cut-off read from the data, not from the text of the source: active = GI50 up to about 1.1 µM and inactive = higher. Numbered stars: 1 amine (or outer) side, 2 acyl side, 3 side chain; on linkers, the order of the positions; unused ones are H or OH. Bridge positions count the residues as written; N and C are the ends. Square brackets hold non-standard residues; d marks the D form. Residues, ends and D or L forms follow the SMILES beside them. Peptide text beside a SMILES is read from it. I, II: the chains in the order shown. *: point of attachment. Actinocin(9to1) = Cc1c2oc3c(C)ccc(C(=O)[*:1])c3nc-2c(C(=O)[*:2])c(N)c1=O; NMeH = CN[CH](Cc1c[nH]cn1)C(=O)O; Cbz = O=C(OCc1ccccc1)*; Sar = CNCC(=O)O

Legend:
Assay in all cases: inhibition of tumour cell growth, NCI panel, 48 h
NCI-H522 = tested on: NCI-H522
RXF 393 = tested on: RXF 393
HCC 2998 = tested on: HCC 2998
K562 = tested on: K562
T47D = tested on: T47D
Malme-3M = tested on: Malme-3M
LOX IMVI = tested on: LOX IMVI
SK-MEL-2 = tested on: SK-MEL-2
UO-31 = tested on: UO-31
HOP-62 = tested on: HOP-62
NCI-H226 = tested on: NCI-H226
Hs-578T = tested on: Hs-578T
KM12 = tested on: KM12
SN12C = tested on: SN12C
ACHN = tested on: ACHN
SNB-19 = tested on: SNB-19
SK-OV-3 = tested on: SK-OV-3
SF-295 = tested on: SF-295
MDA-MB-231 = tested on: MDA-MB-231
MDA-N = tested on: MDA-N

| Structure (SMILES) | GI50 (NCI-H522) | GI50 (RXF 393) | GI50 (HCC 2998) | GI50 (K562) | GI50 (T47D) | GI50 (Malme-3M) | GI50 (LOX IMVI) | GI50 (SK-MEL-2) | GI50 (UO-31) | GI50 (HOP-62) | GI50 (NCI-H226) | GI50 (Hs-578T) | GI50 (KM12) | GI50 (SN12C) | GI50 (ACHN) | GI50 (SNB-19) | GI50 (SK-OV-3) | GI50 (SF-295) | GI50 (MDA-MB-231) | GI50 (MDA-N) |
| --- | --- | --- | --- | --- | --- | --- | --- | --- | --- | --- | --- | --- | --- | --- | --- | --- | --- | --- | --- | --- |
| O=C1C[C@H](Sc2ccccc2)C2(OCCO2)[C@H]2ON3CCC[C@@H]3[C@@H]12 | 0.321 µM (active) | 1.69 µM (inactive) | 2.57 µM (inactive) | 1.71 µM (inactive) | 2.06 µM (inactive) | 1.73 µM (inactive) | 1.09 µM (active) | 3.75 µM (inactive) | 1.58 µM (inactive) | 2.01 µM (inactive) | 8.22 µM (inactive) | 3.73 µM (inactive) | 1.36 µM (inactive) | 1.69 µM (inactive) | 2.1 µM (inactive) | 5.18 µM (inactive) | 3.13 µM (inactive) | 3.79 µM (inactive) | 3.33 µM (inactive) | 3.05 µM (inactive) |
| CCOC(=O)CCC(NC(=O)OCc1ccccc1)C(=O)NC(CCC(=O)OCC)C(=O)OCC (stereo not given) (Cbz-Glu(OEt)-Glu(OEt)-OEt; configuration not given here) | > 100 µM (inactive) | > 100 µM (inactive) | > 100 µM (inactive) | > 100 µM (inactive) | > 100 µM (inactive) | > 100 µM (inactive) | > 100 µM (inactive) | > 100 µM (inactive) | > 100 µM (inactive) | > 100 µM (inactive) | > 100 µM (inactive) | > 100 µM (inactive) | > 100 µM (inactive) | > 100 µM (inactive) | > 100 µM (inactive) | > 100 µM (inactive) | > 100 µM (inactive) | > 100 µM (inactive) | > 100 µM (inactive) | > 100 µM (inactive) |
| Cc1c2oc3c(C)ccc(C(=O)NC4C(=O)NC(C(C)C)C(=O)N5CCCC5C(=O)N(C)CC(=O)N(C)C(Cc5cnc[nH]5)C(=O)OC4C)c3nc-2c(C(=O)NC2C(=O)NC(C(C)C)C(=O)N3CCCC3C(=O)N(C)CC(=O)N(C)C(Cc3cnc[nH]3)C(=O)OC2C)c(N)c1=O (stereo not given) (I: TVP[Sar][NMeH] / II: TVP[Sar][NMeH]; ester I:1-I:C, II:1-II:C; linker I:N-II:N via Actinocin(9to1); configuration not given here) | 16.8 µM (inactive) | 14.7 µM (inactive) | 37.8 µM (inactive) | 39.4 µM (inactive) | 47.5 µM (inactive) | 55.7 µM (inactive) | 20.2 µM (inactive) | 26.3 µM (inactive) | 46.8 µM (inactive) | 43.5 µM (inactive) | 56.2 µM (inactive) | 1 µM (active) | 62.1 µM (inactive) | 57 µM (inactive) | 51.3 µM (inactive) | 45 µM (inactive) | 69.3 µM (inactive) | 45.6 µM (inactive) | > 100 µM (inactive) | 25.2 µM (inactive) |
